ChEMBL document CHEMBL1201862, “PubChem BioAssay data set” (2004)
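Results reflect a 48-hour exposure of cells in 96-well plates to compound at five concentrations. Abbreviation: GI50, concentration required for 50% inhibition of growth.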 Calls of active or inactive are those of the source. Rule as the data show it: active = GI50 up to about 1.1 µM and inactive = higher.

Columns and labels:
Test in all cases: inhibition of tumour cell growth, NCI panel, 48 h
T47D = system: T47D
HCT-15 = system: HCT-15
KM12 = system: KM12
MOLT-4 = system: MOLT-4
NCI-H226 = system: NCI-H226
NCI-H460 = system: NCI-H460
Malme-3M = system: Malme-3M
HL-60 = system: HL-60
SK-MEL-28 = system: SK-MEL-28
SN12C = system: SN12C
PC-3 = system: PC-3
786-0 = system: 786-0
HCC 2998 = system: HCC 2998
RXF 393 = system: RXF 393
SF-268 = system: SF-268
A498 = system: A498
CAKI-1 = system: CAKI-1
SK-MEL-5 = system: SK-MEL-5
SK-OV-3 = system: SK-OV-3

Measured: GI50

O=C(NC1=C(Cl)C(=O)c2ccccc2C1=O)c1ccc(F)cc1
inactive: T47D 1.9 µM | KM12 3.08 µM | MOLT-4 2.24 µM | NCI-H460 2.87 µM | Malme-3M 1.52 µM | SK-MEL-28 4.86 µM | SN12C 3.41 µM | PC-3 1.13 µM | 786-0 10.8 µM | HCC 2998 3.48 µM | RXF 393 1.25 µM | SF-268 7.57 µM
0.535 µM: HCT-15
active: NCI-H226 1.1 µM | HL-60 0.341 µM

COc1cc(OC)c2c3c(OC)cc(OC)c4c(=O)c(O)c(C[C@@H](C)O)c(c5c(C[C@@H](C)O)c(O)c(=O)c1c25)c43
inactive: T47D 16.6 µM | A498 28.8 µM | KM12 23.2 µM | MOLT-4 15.3 µM | NCI-H226 19.6 µM | NCI-H460 27.2 µM | CAKI-1 18.8 µM | SK-MEL-5 14.2 µM | HL-60 11.3 µM | SK-MEL-28 20.1 µM | SN12C 24.5 µM | SK-OV-3 62.2 µM | 786-0 19.1 µM | HCC 2998 16.3 µM | RXF 393 22.4 µM | SF-268 18.9 µM
19.2 µM: HCT-15

O=C1[C@H](O)[C@@H]2CCC[C@@]23CCCN13
inactive: T47D > 100 µM | A498 > 100 µM | KM12 > 100 µM | MOLT-4 > 100 µM | NCI-H226 > 100 µM | NCI-H460 > 100 µM | CAKI-1 > 100 µM | SK-MEL-5 > 100 µM | HL-60 > 100 µM | SN12C > 100 µM | SK-OV-3 > 100 µM | 786-0 > 100 µM | HCC 2998 > 100 µM | RXF 393 > 100 µM | SF-268 > 100 µM
> 100 µM: HCT-15

CC[C@@H]1CC[C@@H]2[C@H](CC[C@]3(C)[C@@H](OS(=O)(=O)c4ccc(C)cc4)CC[C@@H]23)[C@H]1COS(=O)(=O)c1ccc(C)cc1
> 100 µM: HCT-15
inactive: A498 > 100 µM | MOLT-4 > 100 µM | NCI-H226 > 100 µM | NCI-H460 > 100 µM | Malme-3M > 100 µM | SK-MEL-5 > 100 µM | HL-60 > 100 µM | SK-MEL-28 > 100 µM | SN12C > 100 µM | PC-3 > 100 µM | 786-0 > 100 µM | HCC 2998 > 100 µM | RXF 393 > 100 µM | SF-268 > 100 µM

CC(=O)/C(=C/N1CC(=O)NC1=S)C(=O)Nc1ccccc1C
> 100 µM: HCT-15
inactive: T47D > 100 µM | A498 > 100 µM | KM12 > 100 µM | MOLT-4 > 100 µM | NCI-H226 > 10 µM | NCI-H460 > 100 µM | CAKI-1 > 100 µM | SK-MEL-5 > 100 µM | HL-60 > 100 µM | SK-MEL-28 > 100 µM | SN12C > 100 µM | SK-OV-3 > 100 µM | 786-0 > 100 µM | HCC 2998 > 100 µM | RXF 393 > 100 µM | SF-268 > 100 µM

CC(C)(C)OC(=O)N1NC(c2ccccc2)CC1c1ccccc1 (stereo not given)
22.1 µM: HCT-15
inactive: T47D 13.5 µM | A498 27.8 µM | KM12 20.7 µM | MOLT-4 24.8 µM | NCI-H226 29.1 µM | NCI-H460 30.4 µM | CAKI-1 35 µM | SK-MEL-5 19.6 µM | SN12C 45.1 µM | SK-OV-3 37.6 µM | 786-0 38.3 µM | HCC 2998 38.5 µM | RXF 393 15.8 µM | SF-268 65.2 µM

Cc1ccc(N2CCc3c(C)c(C#N)c4nc5ccccc5n4c32)cc1
inactive: NCI-H226 > 100 µM | NCI-H460 99.1 µM | CAKI-1 70.6 µM | Malme-3M > 100 µM | SK-MEL-5 > 100 µM | HL-60 > 100 µM | SK-MEL-28 > 100 µM | SN12C > 100 µM | SK-OV-3 59.3 µM | PC-3 > 100 µM | 786-0 12.1 µM | HCC 2998 > 100 µM | RXF 393 32.1 µM | SF-268 31.8 µM
> 100 µM: HCT-15
